Assay results taken from patent US20250034171A1, “IMIDAZOPYRIDINE AMIDES AND RELATED COMPOUNDS FOR USE IN THE TREATMENT OF BACTERIAL INFECTIONS” (priority 2021, published 2025).
Values after ≈ are worked out from the molar mass of the structure shown. Like-named read-outs stand apart in the source and are kept apart here.

What was measured:
[1] = HTChem stab assay (chemical stability in buffer pH2, pH4 and pH7 vs DMSO reference); assay type: physicochemical
Method: HTChem stab assay was used to assess the chemical stability of the compounds. 72 h stirring at rt in a buffer pH2, pH4 and pH7 vs a reference DMSO solution. HTChem stab assay is based on the handbook of Pharmaceutical Stress Testing, Predicting Drug Degradation, second edition, authors Baertschi, Alsante, Reed ISBN 978-143980179-6.
Compounds were plated (1 μl 10 mM DMSO stock in 96 well plate (DMSO control+3 pH conditions), one plate per condition).
200 μL of respectively DMSO, Buffer/DMSO mix pH2, Buffer/DMSO mix pH4 and Buffer/DMSO mix pH7 was added.
After 72 h shaking (300 rpm) at room temperature the samples were analysed by LC/UV/MS. Chromatograms of samples (stability conditions) were compared with the chromatograms of control sample (DMSO). Extra peaks were flagged and identified by mass spectrometry. Sample purity (reference included) were reported.
• pH3 buffer: For 11; weigh 4.14 g NaH2PO4·H2O, add 600 ml H2O, add H3PO4 to pH3, add H2O to 1000 ml. Filter over 0.2 μm and store at 4° C. Expires after 30 days. • pH6 buffer: For 1 l; weigh 4.14 g NaH2PO4·H2O, add 600 ml H2O, add 1N NaOH to pH6, add H2O to 1000 ml. Filter over […] and store at 4° C. Expires after 30 days.
• pH2 Buffer/DMSO (StabSolvent): mix 2 parts of HCl 0.1N with 1 part of DMSO • pH4 Buffer/DMSO (StabSolvent): mix 2 parts of buffer pH3 with 1 part of DMSO • pH7 Buffer/DMSO (StabSolvent): mix 2 parts of buffer pH6 with 1 part of DMSO measure pH prior to use.
Instrument: Acquity UPLC; Column: Acquity HSS T3, 50 mm length×2.1 mm i.d., 1.8 μm particle size. Detectors: PDA (250-350 nm) and SQD2 (90-1500m/z). Mobile phase A: 0.1% Formic acid in water; Mobile phase B: 0.1% Formic acid in Acetonitrile.
Injection volume: 5 μL, flow rate 0.6 mL/min.
Data processing including peak integration and identification was done with Waters OpenLynx software.

[2] = tested on: Mycobacterium tuberculosis strain H37Rv; experiment: Test 2: MIC determination against M. tuberculosis, resazurin fluorescence; assay type: cell-based; details: Test 2, M. tuberculosis H37Rv; for MIC90: read-out: Bacterial activity MIC90; for IC50: read-out: Bacterial activity pMIC50 (converted)
[3] = Metabolic stability in liver microsomes (intrinsic clearance); assay type: in vitro ADME
Method: The test compound was incubated under the generic condition (0.5 mg/ml microsomal protein, 1 mM NADPH, 1 mM MgCl2, and 0.1 M phosphate buffer, pH 7.4, 37° C.) at a defined substrate concentration (typically 1 μM) in liver microsomes of selected species across a time course (typically 0, 5, 10, 20, 40 and 60 minutes) at Cyprotex (Cheshire, UK). The liver microsomes, buffer and test compound will be pre-incubated for 5 minutes. The addition of the co-factor NADPH will initiate the reaction and the reaction was terminated by addition of acetonitrile. The samples were centrifuged prior to analysis by LC-MS/MS analysis. The relative amount of parent compound remaining in the active incubations vs. the control incubations (t=0 mins) for each compound was measured by peak area comparison. The in vitro metabolic half-life (t1/2) was calculated using the slope of the log-linear regression from the percentage parent compound remaining versus time relationship (κ), The in vitro intrinsic clearance (Cl^int) (μl/min/mg microsomal protein) was calculated using the in vitro metabolic half-life, incubation volume and the weight of microsomal protein in the incubation.

[4] = tested on: Salmonella typhimurium Ames II Mixed Strains (TA7001-TA7006) and TA98; experiment: Genotoxicity assay (AmesIIb mutagenicity test); assay type: cell-based; further: key: an AmesIIb score of 1 shows no genotoxicity signals
Excerpt: The aim is to evaluate compounds (and/or their metabolites) for their ability to induce reverse mutations in a gene of histidine-requiring Salmonella typhimurium strains to produce histidine-independent strains of these bacteria, in the absence and in the presence of a mammalian metabolic activation system.
Point mutations were made in the histidine (His) operon in Salmonella typhimurium, rendering the bacteria incapable of producing histidine. These single base substitutions are positioned at strategic points within the His gene, resulting in his-organisms that cannot grow unless histidine is supplied. When a mutagenic event occurs, base substitutions within the His gene then cause the reversion of the his-Ames II™ strains to His.
A chemical's mutagenic potential is assessed by exposing these his-organisms to varying concentrations of chemical and selecting for the reversion event. Medium lacking histidine is used for this selection which allows only those cells that have undergone the his- to His reversion to survive and grow.
The assay may be performed using a kit and instructions from Xenometric. The two strains provided in the Xenometric kit are the Ames II™ Mixed Strains and TA98. The Ames II™ Mixed Strains contains an equimolar mixture of the Ames II™ TA7001-TA7006 strains. Individually, these strains are designed to revert by only one specific base-pair substitution out of six possible changes. Thus, when mixed, all six base substitution mutations can be represented in one culture. This kit also contains TA98 for the detection of frameshift mutations.

[5] = buffer pH2/DMSO, 72 h stirring at rt
[6] = buffer pH4/DMSO, 72 h stirring at rt
[7] = buffer pH7/DMSO, 72 h stirring at rt
[8] = reference DMSO solution, 72 h stirring at rt
[9] = Mycobacterium tuberculosis, H37RV
[10] = mouse, microsomes, pH 7.4, Metabolic Stability Half life (mouse, min.)
[11] = mouse, microsomes, pH 7.4, mouse liver microsomes, read-out: Metabolic Stability (liver microsome intrinsic clearance) Clearance (mouse, μl/min./mg protein)
[12] = human, microsomes, pH 7.4, Metabolic Stability Half life (human, min.)
[13] = human, microsomes, pH 7.4, human liver microsomes, read-out: Metabolic Stability (liver microsome intrinsic clearance) Clearance (human, μl/min./mg protein)

Row | Compound | Bacterial activity pMIC50 [2] | MIC90 [2] | Metabolic Stability (liver microsome intrinsic clearance) Clearance (mouse, μl/min./mg protein) ([3]; mouse liver microsomes) | Metabolic Stability Half life (mouse, min.) ([3]; mouse liver microsomes) | GeneTox AmesIIb Score [4] | GeneTox AmesIIb Score ([4]; Salmonella typhimurium) | MIC90 [2, 9] | IC50 [2, 9] | half-life at 1 µM [3, 10] | microsomal CLint at 1 µM [3, 11] | also measured
1 | CCc1nc2n(c1C(=O)NCc1ccc(-c3nc4n(n3)CCC(C(F)(F)F)C4)cc1)CCCC2 (racemic) [Compound 13ab] | 8.067 | 0.024 µM (≈ 0.0113 µg/mL) | 15.5 μl/min./mg protein | 1.49 h | 1 |  |  |  |  |  | Chemical stability data, Buffer pH2 [1, 5]: 100%; Chemical stability data, Buffer pH4 [1, 6]: 100%; Chemical stability data, Buffer pH7 [1, 7]: 100%; Chemical stability data, Vehicle DMSO [1, 8]: 100%
2 | O=C(NCc1ccc(-c2nc3n(n2)CCC(C(F)(F)F)C3)cc1)c1c(C(F)F)nc2ccccn12 (racemic) [Compound 14ab] | 7.877 | 0.036 µM (≈ 0.0177 µg/mL) | <7.7 μl/min./mg protein | >3 h | 1 |  |  |  |  |  | Chemical stability data, Buffer pH2 [1, 5]: 100%; Chemical stability data, Buffer pH4 [1, 6]: 100%; Chemical stability data, Buffer pH7 [1, 7]: 100%; Chemical stability data, Vehicle DMSO [1, 8]: 100%
3 | CCc1nc2ncccn2c1C(=O)NCc1ccc(-c2nc3n(n2)CCC(C(F)(F)F)C3)cc1 (racemic) [Compound 17ab] | 7.526 | 0.105 µM (≈ 0.0493 µg/mL) | <7.7 μl/min./mg protein | >3 h | 1 |  |  |  |  |  | Chemical stability data, Buffer pH2 [1, 5]: 100%; Chemical stability data, Buffer pH4 [1, 6]: 97%; Chemical stability data, Buffer pH7 [1, 7]: 100%; Chemical stability data, Vehicle DMSO [1, 8]: 100%
4 | O=C(NCc1ccc(-c2cn3c(n2)CC(C(F)(F)F)CC3)cc1)c1c(C(F)(F)F)nc2ccccn12 (racemic) [Compound 18ab] | 7.431 | 0.142 µM (≈ 0.0721 µg/mL) | 11.1 μl/min./mg protein | 2.08 h | 1 |  |  |  |  |  | Chemical stability data, Buffer pH2 [1, 5]: 98%; Chemical stability data, Buffer pH4 [1, 6]: 100%; Chemical stability data, Buffer pH7 [1, 7]: 100%; Chemical stability data, Vehicle DMSO [1, 8]: 98%
5 | CCc1nc2ncc(C)cn2c1C(=O)NCc1ccc(-c2cn3c(n2)CC(C(F)(F)F)CC3)cc1 (single isomer, unassigned) [Compound 3a] | 8.532 | 0.008 µM (≈ 0.00386 µg/mL) | 7.78 μl/min./mg protein |  |  | 1 |  |  |  |  | Chemical stability data, Vehicle DMSO ([1]; 72 h, 50 µM): 100%; Chemical stability data, Buffer pH2 ([1]; 72 h, 50 µM, pH 2): 100%; Chemical stability data, Buffer pH4 ([1]; 72 h, 50 µM, pH 4): 100%; Chemical stability data, Buffer pH7 ([1]; 72 h, 50 µM, pH 7): 100%; Metabolic Stability (liver microsome intrinsic clearance) Clearance (human, μl/min./mg protein) ([3]; human liver microsomes): 13.4 μl/min./mg protein; Metabolic Stability Half life (human, min.) ([3]; human, microsomes, 1 µM, pH 7.4): 1.72 h; Metabolic Stability Half life (mouse, min.) ([3]; mouse, microsomes, 1 µM, pH 7.4): 2.97 h
6 | Cc1cnc2nc(C3CC3)c(C(=O)NCc3ccc(-c4nc5n(n4)CCC(C(F)(F)F)C5)cc3)n2c1 (stereo not drawn) [Compound 8ab] |  |  |  |  |  | 1 | 0.018 µM (≈ 0.00892 µg/mL) | 7110 pM |  |  | Chemical stability data, Vehicle DMSO ([1]; 72 h, 50 µM): 100%; Chemical stability data, Buffer pH2 ([1]; 72 h, 50 µM, pH 2): 100%; Chemical stability data, Buffer pH4 ([1]; 72 h, 50 µM, pH 4): 100%; Chemical stability data, Buffer pH7 ([1]; 72 h, 50 µM, pH 7): 100%
7 | CCc1nc2cc(F)ccn2c1C(=O)NCc1ccc(-c2nc3n(n2)CCCC3)cc1 [Compound 120] |  |  |  |  |  | 1 | 0.042 µM (≈ 0.0176 µg/mL) | 14500 pM | 1.61 h | 14.4 µL/min/mg | 
8 | CCc1nc2ncc(C)cn2c1C(=O)NCc1ccc(-c2nc3n(n2)CCC(C)(C)C3)cc1 [Compound 144] |  |  |  |  |  | 1 | 0.05 µM (≈ 0.0222 µg/mL) | 12600 pM | > 3 h | < 7.7 µL/min/mg | 
9 | CCc1cnc2nc(CC)c(C(=O)NCc3ccc(-c4cn5c(n4)C[C@H](C(F)(F)F)CC5)cc3)n2c1 [Compound 151] |  |  |  |  |  | 1 | 0.054 µM (≈ 0.0268 µg/mL) | 18200 pM | 0.37 h | 62.5 µL/min/mg | half-life at 1 µM [3, 12]: 0.0717 h; microsomal CLint at 1 µM [3, 13]: 326 µL/min/mg
10 | CCc1cnc2nc(CC)c(C(=O)NCc3ccc(-c4cn5c(n4)C[C@@H](C(F)(F)F)CC5)cc3)n2c1 [Compound 152] |  |  |  |  |  | 1 | 0.088 µM (≈ 0.0437 µg/mL) | 23400 pM | 0.178 h | 129 µL/min/mg | half-life at 1 µM [3, 12]: < 0.0667 h; microsomal CLint at 1 µM [3, 13]: > 347 µL/min/mg
11 | CCc1nc2n(c1C(=O)NCc1ccc(-c3cc4n(n3)CCC(C(F)(F)F)C4)cc1)CCCC2 (stereo not drawn) [Compound 179] |  |  |  |  |  | 1 | 0.0097 µM (≈ 0.00457 µg/mL) | 3310 pM | 0.432 h | 53.5 µL/min/mg | 
12 | CCc1nc2ncccn2c1C(=O)NCc1ccc(-c2nc3n(n2)CC[C@@H](C2CC2)C3)cc1 [Compound 183] |  |  |  |  |  | 1 | 0.48 µM (≈ 0.212 µg/mL) | 646000 pM | 2.28 h | 10.1 µL/min/mg | 
13 | CCc1nc2ncccn2c1C(=O)NCc1ccc(-c2nc3n(n2)CC[C@H](C2CC2)C3)cc1 [Compound 184] |  |  |  |  |  | 1 | 0.43 µM (≈ 0.19 µg/mL) | 166000 pM | > 3 h | < 7.7 µL/min/mg | 
14 | CCc1nc2ncc(NC(=O)OC(C)(C)C)cn2c1C(=O)NCc1ccc(-c2nc3n(n2)CCC(C(F)(F)F)C3)cc1 (stereo not drawn) [Compound 194] | 7.43 | 0.1 µM (≈ 0.0585 µg/mL) | <7.7 μl/min./mg protein | >3 h | 1 |  |  |  |  |  | Metabolic Stability (liver microsome intrinsic clearance) Clearance (human, μl/min./mg protein) ([3]; human liver microsomes): <7.7 μl/min./mg protein; Metabolic Stability Half life (human, min.) ([3]; human liver microsomes): >3 h
15 | CCc1nc2nc(C)c(N(Cc3ccc(OC)cc3OC)C(=O)OC(C)(C)C)cn2c1C(=O)NCc1ccc(-c2nc3n(n2)CC[C@H](C(F)(F)F)C3)cc1 [Compound 196] | 7.56 | 0.067 µM (≈ 0.0502 µg/mL) | <7.7 μl/min./mg protein | >3 h | 1 |  |  |  |  |  | 
